# Columns and labels:
# [1] = tested on: rat liver microsomes (RLM); assay: Metabolic stability in rat liver microsomes (RLM); details: for RLM, % (half-life as % vs. the related nondeuterated compound) / RLM, %, class symbol (metabolized or not): RLM assay; for RLM, % (half-life as % vs. the related nondeuterated compound): values in square brackets are within 10% (assay's accuracy), no deuteration effect; for RLM, %, class symbol (metabolized or not): last time point 120 min
# [2] = target: T1, hrMAO-A (Homo sapiens, UniProt P21397); assay: Metabolic stability in the presence of hrMAO-A; type: in vitro ADME; details: for MAO, %, class symbol (metabolized or not) / MAO, % (half-life as % vs. the related nondeuterated compound): MAO-A assay; for MAO, %, class symbol (metabolized or not): last time point 120 min; for MAO, % (half-life as % vs. the related nondeuterated compound): values in square brackets are within 10% (assay's accuracy), no deuteration effect
# T1 construct: purchased XenoTech Lot #8213001
# T1 sequence (P21397 1-527): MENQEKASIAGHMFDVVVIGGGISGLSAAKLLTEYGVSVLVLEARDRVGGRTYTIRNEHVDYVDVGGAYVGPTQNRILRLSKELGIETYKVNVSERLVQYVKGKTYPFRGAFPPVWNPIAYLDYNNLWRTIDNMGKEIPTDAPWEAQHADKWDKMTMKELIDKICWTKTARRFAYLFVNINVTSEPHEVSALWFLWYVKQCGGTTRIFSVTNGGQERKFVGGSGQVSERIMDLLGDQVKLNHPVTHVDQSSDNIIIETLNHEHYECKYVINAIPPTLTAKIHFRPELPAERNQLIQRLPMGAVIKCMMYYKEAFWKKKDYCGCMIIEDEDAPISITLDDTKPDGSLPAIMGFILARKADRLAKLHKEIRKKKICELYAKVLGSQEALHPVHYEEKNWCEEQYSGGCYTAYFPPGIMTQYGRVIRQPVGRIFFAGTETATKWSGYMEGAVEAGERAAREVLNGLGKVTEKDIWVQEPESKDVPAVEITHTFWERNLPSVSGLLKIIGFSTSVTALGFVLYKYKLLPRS
# Description: The reaction mixture was prepared as described below. The co-dosed TAs were added into the reaction mixture at a final concentration of 1 microM each. The positive control, kynuramine (25 microM), was run simultaneously with the TAs in a separate reaction. The reaction mixture (without TAs or kynuramine) was equilibrated in a shaking water bath at 37° C. for 5 minutes. The reaction was initiated by the addition of the TAs or kynuramine, and the mixture was incubated in a shaking water bath at 37° C. Aliquots (100 microL) of the TA reaction mixture were withdrawn at 0, 5, 10, 20, 30, 60, and 120 minutes. Aliquots (100 microL) of the positive control reaction mixture were withdrawn at 0 and 30 minutes. TA and kynuramine samples were immediately combined with 100 microL of ice-cold 100% MeCN containing 0.1% formic acid and IS to terminate the reaction. The samples were then mixed and centrifuged to precipitate proteins. All TA samples were assayed by LC-HRAMS. The PARR (analyte to IS) at each time point was compared to the PARR at time 0 to determine the percent remaining at each time point. Reaction composition: hrMAO 0.02 mg/mL; Potassium Phosphate, pH 7.4 100 mM; Magnesium Chloride 5 mM; Test Articles (each) 1 microM.
# [3] = PK studies in rats (cassette dosing, oral gavage or catheter; brain and plasma levels); type: in vivo, Wistar female rats; details: % change vs. non-deuterated material; for Deuterium Kinetic Isotope Effect (% change) AUC / Deuterium Kinetic Isotope Effect (% change) T1/2: 5 mg/kg; for Deuterium Kinetic Isotope Effect (% change) BPR, 15 min: sacrificed at 15 min; for Deuterium Kinetic Isotope Effect (% change) BPR, 15 min / Deuterium Kinetic Isotope Effect (% change) BPR, 30 min: parent drug in brain and plasma; for Deuterium Kinetic Isotope Effect (% change) BPR, 30 min: sacrificed at 30 min
# Description: The key PK parameters (presented as a % change vs. non-deuterated materials) are presented in Table 3 to include half-life (T1/2), area under the curve (AUC), bioavailability (F) and blood-to-plasma ration (BPR). Pharmacokinetics of the deuterated tryptamines was studied in rats. In a typical experiment, run as a cassette dosing, two groups of 5 Wistar female rats (200-250 g) with surgically inserted jugular vein catheter (Charles River, Andover, MA) were fasted for 12 h and then administered 5 mg/kg of the deuterated and 5 mg/kg of the related non-deuterated analog, by oral gavage or via a catheter for each group. At time points 0, 15, 30, 60 min, and 2, 4, 8, and 24 h, the resulting plasma was analyzed for the parent molecule using LC/MS spectroscopy. Two separate groups of 5 animals were used for determining blood-to-plasma ratio (BPR). Each group was sacrificed at time points 15 and 30 min, respectively, and the concentration of the parent drug was determined in the brain and plasma by LC/MS spectroscopy.
# [4] = Table 5, d8 and d10 analogs, hrMAO-A
smiles,measurement,setting,value
[2H]C([2H])(c1c[nH]c2ccc(OC)cc12)C([2H])([2H])N(CC)CC,"RLM, % (half-life as % vs. the related nondeuterated compound)",[1],[95] %
COc1cccc2[nH]cc(CCN(C)C)c12 [reference compound],"RLM, %, class symbol (metabolized or not)",[1],R
same,"MAO, %, class symbol (metabolized or not)",[2],R
CN(C)CCc1c[nH]c2ccc(O)cc12 [reference compound],"RLM, %, class symbol (metabolized or not)",[1],R
same,"MAO, %, class symbol (metabolized or not)",[2],R
CCN(CC)CCc1c[nH]c2ccc(O)cc12,"RLM, %, class symbol (metabolized or not)",[1],R
"[2H]C([2H])(Cc1c[nH]c2cccc(O)c12)N(C)C [PI-α,α-d2]",Deuterium Kinetic Isotope Effect (% change) AUC,[3],75 % change
same,Deuterium Kinetic Isotope Effect (% change) T1/2,[3],50 % change
same,"Deuterium Kinetic Isotope Effect (% change) BPR, 15 min",[3],100 % change
same,"Deuterium Kinetic Isotope Effect (% change) BPR, 30 min",[3],150 % change
[2H]C([2H])([2H])N(C([2H])([2H])[2H])C([2H])([2H])C([2H])([2H])c1c[nH]c2ccccc12 [DMT-d10],% Remaining of Initial 0 min,"[1]; Table 2, RLM",100%
same,% Remaining of Initial 0 min,"[1]; Table 4, d8 and d10 analogs, RLM",100%
same,% Remaining of Initial 10 min,"[1]; Table 4, d8 and d10 analogs, RLM, 10 min",56.0%
same,"kinetic deuterium isotope effect / metabolic stability, in words","[1]; rat liver microsomes, vs. DMT",Further enhancement of metabolic stability
same,"metabolic stability in the MAO-A enzymatic assay, in words",[2]; MAO-A enzymatic assay,superiority
same,Half-life,"[2]; Table 3, hrMAO-A",> 2 h
same,% Remaining of Initial 0 min,"[2]; Table 3, hrMAO-A",100%
same,Half-life,[2]; [4],> 2 h
same,% Remaining of Initial 0 min,[2]; [4],100.0%
same,% Remaining of Initial 5 min,"[2]; Table 5, d8 and d10 analogs, hrMAO-A, 5 min",99.0%
CCN(CC)CCc1c[nH]c2ccc(OC)cc12,"RLM, %, class symbol (metabolized or not)",[1],R
CC(C)NCCc1c[nH]c2ccccc12,"RLM, %, class symbol (metabolized or not)",[1],R
[2H]C([2H])(NCC)C([2H])([2H])c1c[nH]c2cccc(O)c12,"RLM, % (half-life as % vs. the related nondeuterated compound)",[1],[94] %
"[2H]C([2H])(Cc1c[nH]c2ccc(OC)cc12)N(C)C [5-MeO-DMT-α,α-d2]",Deuterium Kinetic Isotope Effect (% change) AUC,[3],60 % change
same,Deuterium Kinetic Isotope Effect (% change) T1/2,[3],30 % change
same,"Deuterium Kinetic Isotope Effect (% change) BPR, 15 min",[3],120 % change
same,"Deuterium Kinetic Isotope Effect (% change) BPR, 30 min",[3],180 % change
CCN(C)CCc1c[nH]c2ccc(O)cc12 [reference compound],"RLM, %, class symbol (metabolized or not)",[1],R
same,"MAO, %, class symbol (metabolized or not)",[2],R
CCN(CC)CCc1c[nH]c2ccccc12,"RLM, %, class symbol (metabolized or not)",[1],R
[2H]C([2H])(c1c[nH]c2cccc(O)c12)C([2H])([2H])N(C(C)C)C(C)C,"RLM, % (half-life as % vs. the related nondeuterated compound)",[1],[97] %
[2H]C([2H])([2H])C([2H])([2H])NC([2H])([2H])C([2H])([2H])c1c[nH]c2cccc(O)c12,"RLM, % (half-life as % vs. the related nondeuterated compound)",[1],[93] %
CCN(CC)CCc1c[nH]c2cccc(OC)c12,"RLM, %, class symbol (metabolized or not)",[1],R
[2H]C([2H])(c1c[nH]c2cccc(OC)c12)C([2H])([2H])N(C)C,"RLM, % (half-life as % vs. the related nondeuterated compound)",[1],190%
[2H]C([2H])(NCC)C([2H])([2H])c1c[nH]c2ccccc12,"MAO, % (half-life as % vs. the related nondeuterated compound)",[2],140%
[2H]c1ccc2[nH]c([2H])c(CCN([2H])CC)c2c1O,"RLM, %, class symbol (metabolized or not)",[1],R
C=CCNCCc1c[nH]c2ccccc12,"RLM, %, class symbol (metabolized or not)",[1],R
"COc1ccc2[nH]cc(CCN(C)C)c2c1 [5-MeO-DMT, reference compound]","RLM, %, class symbol (metabolized or not)",[1],R
same,"MAO, %, class symbol (metabolized or not)",[2],R
[2H]C([2H])(c1c[nH]c2ccccc12)C([2H])([2H])N(C)C [DMT-d4],% Remaining of Initial 0 min,"[1]; Table 2, RLM",100%
same,Half-life,"[2]; Table 3, hrMAO-A",> 2 h
same,% Remaining of Initial 0 min,"[2]; Table 3, hrMAO-A",100%
CCN(C)CCc1c[nH]c2cccc(OC)c12 [reference compound],"RLM, %, class symbol (metabolized or not)",[1],R
same,"MAO, %, class symbol (metabolized or not)",[2],R
CCN(C)CCc1c[nH]c2ccccc12 [reference compound],"RLM, %, class symbol (metabolized or not)",[1],R
same,"MAO, %, class symbol (metabolized or not)",[2],R
[2H]C([2H])(Cc1c[nH]c2ccccc12)N(C)C [DMT-d2],% Remaining of Initial 0 min,"[1]; Table 2, RLM",100%
same,% Remaining of Initial 60 min,"[1]; Table 2, RLM, 60 min",32.0%
same,Half-life,"[2]; Table 3, hrMAO-A",> 2 h
same,% Remaining of Initial 0 min,"[2]; Table 3, hrMAO-A",100%
same,% Remaining of Initial 60 min,"[2]; Table 3, hrMAO-A, 60 min",76.0%
CC(C)N(CCc1c[nH]c2cccc(O)c12)C(C)C,"RLM, %, class symbol (metabolized or not)",[1],R
CC(C)NCCc1c[nH]c2cccc(O)c12,"RLM, %, class symbol (metabolized or not)",[1],R
CCNCCc1c[nH]c2ccccc12 [reference compound],"RLM, %, class symbol (metabolized or not)",[1],R
same,"MAO, %, class symbol (metabolized or not)",[2],R
C=CCN(CC=C)CCc1c[nH]c2ccccc12,"RLM, %, class symbol (metabolized or not)",[1],R
CN(C)CCc1c[nH]c2ccccc12 [DMT],% Remaining of Initial 0 min,"[1]; Table 2, RLM",100%
same,% Remaining of Initial 20 min,"[1]; Table 2, RLM, 20 min",41.0%
same,% Remaining of Initial 0 min,"[2]; Table 3, hrMAO-A",100%
[2H]C([2H])(NC)C([2H])([2H])c1c[nH]c2cccc(O)c12,"RLM, % (half-life as % vs. the related nondeuterated compound)",[1],160%
CNCCc1c[nH]c2ccccc12 [reference compound],"RLM, %, class symbol (metabolized or not)",[1],R
same,"MAO, %, class symbol (metabolized or not)",[2],R
CCNCCc1c[nH]c2cccc(O)c12,"RLM, %, class symbol (metabolized or not)",[1],R
[2H]C([2H])(Cc1c[nH]c2ccccc12)NC([2H])([2H])C([2H])([2H])[2H],"MAO, % (half-life as % vs. the related nondeuterated compound)",[2],170%
CCN(C)CCc1c[nH]c2ccc(OC)cc12 [reference compound],"RLM, %, class symbol (metabolized or not)",[1],R
same,"MAO, %, class symbol (metabolized or not)",[2],R
CNCCc1c[nH]c2cccc(O)c12 [reference compound],"RLM, %, class symbol (metabolized or not)",[1],R
same,"MAO, %, class symbol (metabolized or not)",[2],R

# Source: patent US12291499B2, “Deuterated tryptamine derivatives and methods of use” (priority 2020, dated 2025)
